Experimental data published in ChEMBL document CHEMBL3576853, “Discovery of InhA inhibitors with anti-mycobacterial activity through a matched molecular pair approach” (Eur J Med Chem, 2015).

Assays:
Escherichia coli [1] = test: Toxicity against Escherichia coli JM109 assessed as bacterial growth inhibition at 50 uM after 8 hrs by microplate reader analysis; assay type: organism-based; settings: in vivo
[2] = test system: Mycobacterium tuberculosis; test: Inhibition of Mycobacterium tuberculosis recombinant InhA assessed as enzyme activity measured as NADH oxidation using 2-trans-decenyl CoA as substrate at 50 uM by TECAN spectrophotometer analysis; set-up: scale not given: the % may be the effect or the level left
MDCK = test: Cytotoxicity against dog MDCK cells at 50 uM after 1 day by WST-8 assay; assay type: cell-based, Canis lupus familiaris; settings: 24 h
Escherichia coli [3] = test: Toxicity against Escherichia coli BL21 assessed as bacterial growth inhibition at 50 uM after 8 hrs by microplate reader analysis
[4] = test system: Mycolicibacterium smegmatis; test: Anti-mycobacterial activity against Mycobacterium smegmatis assessed as bacterial growth inhibition after 24 hrs by microplate reader analysis; assay type: functional, organism-based
SH-SY5Y = test: Cytotoxicity against human SH-SY5Y cells at 50 uM after 2 days by WST-8 assay; assay type: cell-based; settings: 48 h

SMILES | Activity (Escherichia coli [1]) | Activity [2] | Activity (MDCK) | Activity (Escherichia coli [3]) | IC50 [4] | Activity (SH-SY5Y)
O=C(c1cccc(Oc2ccccc2)c1)N1CCN(C(=O)c2ccco2)CC1 | Non-toxic | 69.3% | Non-toxic | Non-toxic |  | 
O=C(O)C(=O)O.O=C(c1cccnc1)N1CCN(Cc2cccc(Oc3ccccc3)c2)CC1 | Non-toxic | 34% | Non-toxic | Non-toxic |  | 
O=C(c1ccccc1)N1CCN(Cc2cccc(Oc3ccccc3)c2)CC1 | Non-toxic | 21.9% | Non-toxic | Non-toxic | 22.9 µM | 
Sc1nnc(-c2ccco2)n1/N=C/c1cccc(Oc2ccccc2)c1 | Non-toxic | 53.5% | Non-toxic | Non-toxic |  | 
COc1ccccc1C(=O)N1CCN(Cc2cccc(Oc3ccccc3)c2)CC1.O=C(O)C(=O)O | Non-toxic | 37.7% | Non-toxic | Non-toxic | 25.7 µM | 
O=C(c1ccco1)N1CCN(Cc2cccc(Oc3ccccc3)c2)CC1 |  | 65.1% |  |  | 12 µM | 
COc1ccc(OCC(=O)N2CCN(Cc3cccc(Oc4ccccc4)c3)CC2)cc1 | Non-toxic | 44.7% | Non-toxic | Non-toxic |  | Toxic
O=C(Cc1ccccc1)N1CCN(Cc2cccc(Oc3ccccc3)c2)CC1 | Non-toxic | 65.6% | Non-toxic | Non-toxic |  | 
O=C(COc1ccccc1)N1CCN(Cc2cccc(Oc3ccccc3)c2)CC1 | Non-toxic | 69.3% | Non-toxic | Non-toxic | 21.4 µM | 
Oc1cc(Cl)ccc1Oc1ccc(Cl)cc1Cl |  | 16.3% |  |  |  | 
O=C(O)C(=O)O.O=C(c1ccccc1F)N1CCN(Cc2cccc(Oc3ccccc3)c2)CC1 | Non-toxic | 21.9% | Non-toxic | Non-toxic | 17.3 µM | 
NNC(=O)c1ccncc1 [ISONIAZID] |  |  |  |  | 9.8 µM | 
COc1cccc(C(=O)N2CCN(Cc3cccc(Oc4ccccc4)c3)CC2)c1OC | Non-toxic | 65.1% | Non-toxic | Non-toxic | 28.1 µM | 
